Earlier results as cited in patent US20250215044A1, “Compounds and Methods for Inhibiting LPA” (Ionis Pharmaceuticals, Inc., priority 2023, published 2025).

Tested on: plasma Lp(a)
Set-up: concentration or dose not given beside the values
Conditions: clinical setting

Compound	reduction of plasma Lp(a) levels
CC(C)c1cc(Oc2c(Br)cc(NC(=O)CC(=O)O)cc2Br)ccc1O [Epirotirome]	43%
O=C(NC1CCN(CCCCC2(C(=O)NCC(F)(F)F)c3ccccc3-c3ccccc32)CC1)c1ccccc1-c1ccc(C(F)(F)F)cc1 [Lomitapide]	17%
CC(=O)Oc1ccccc1C(=O)O [aspirin]	18%
Mipomersen	32%
O=C(O)c1cccnc1 [Niaspan]	39%
COc1cc(F)c(C(C)C)cc1-c1ccc(C(F)(F)F)cc1CN1C(=O)O[C@H](c2cc(C(F)(F)F)cc(C(F)(F)F)c2)[C@@H]1C [Anacetrapib]	36%
